# Test results taken from US20230382924A1, “MODULATORS OF CYSTIC FIBROSIS TRANSMEMBRANE CONDUCTANCE REGULATOR” (VERTEX PHARMACEUTICALS INCORPORATED, priority 2020, published 2023).
# pEC50: −log10 of the molar value. Where two headings read alike, the source gives them in different places.
# Experiments:
# F508del = target: T1, F508del (Homo sapiens, UniProt P13569, DEL508-508); assay: 3T3 assay: membrane potential optical assay for F508del correction in NIH 3T3 cells; format: cell-based; details: for Emax: NIH3T3
# T1 construct: expressed in transfected cells
# T1 sequence (P13569 with tags, fused parts or gaps DEL508-508): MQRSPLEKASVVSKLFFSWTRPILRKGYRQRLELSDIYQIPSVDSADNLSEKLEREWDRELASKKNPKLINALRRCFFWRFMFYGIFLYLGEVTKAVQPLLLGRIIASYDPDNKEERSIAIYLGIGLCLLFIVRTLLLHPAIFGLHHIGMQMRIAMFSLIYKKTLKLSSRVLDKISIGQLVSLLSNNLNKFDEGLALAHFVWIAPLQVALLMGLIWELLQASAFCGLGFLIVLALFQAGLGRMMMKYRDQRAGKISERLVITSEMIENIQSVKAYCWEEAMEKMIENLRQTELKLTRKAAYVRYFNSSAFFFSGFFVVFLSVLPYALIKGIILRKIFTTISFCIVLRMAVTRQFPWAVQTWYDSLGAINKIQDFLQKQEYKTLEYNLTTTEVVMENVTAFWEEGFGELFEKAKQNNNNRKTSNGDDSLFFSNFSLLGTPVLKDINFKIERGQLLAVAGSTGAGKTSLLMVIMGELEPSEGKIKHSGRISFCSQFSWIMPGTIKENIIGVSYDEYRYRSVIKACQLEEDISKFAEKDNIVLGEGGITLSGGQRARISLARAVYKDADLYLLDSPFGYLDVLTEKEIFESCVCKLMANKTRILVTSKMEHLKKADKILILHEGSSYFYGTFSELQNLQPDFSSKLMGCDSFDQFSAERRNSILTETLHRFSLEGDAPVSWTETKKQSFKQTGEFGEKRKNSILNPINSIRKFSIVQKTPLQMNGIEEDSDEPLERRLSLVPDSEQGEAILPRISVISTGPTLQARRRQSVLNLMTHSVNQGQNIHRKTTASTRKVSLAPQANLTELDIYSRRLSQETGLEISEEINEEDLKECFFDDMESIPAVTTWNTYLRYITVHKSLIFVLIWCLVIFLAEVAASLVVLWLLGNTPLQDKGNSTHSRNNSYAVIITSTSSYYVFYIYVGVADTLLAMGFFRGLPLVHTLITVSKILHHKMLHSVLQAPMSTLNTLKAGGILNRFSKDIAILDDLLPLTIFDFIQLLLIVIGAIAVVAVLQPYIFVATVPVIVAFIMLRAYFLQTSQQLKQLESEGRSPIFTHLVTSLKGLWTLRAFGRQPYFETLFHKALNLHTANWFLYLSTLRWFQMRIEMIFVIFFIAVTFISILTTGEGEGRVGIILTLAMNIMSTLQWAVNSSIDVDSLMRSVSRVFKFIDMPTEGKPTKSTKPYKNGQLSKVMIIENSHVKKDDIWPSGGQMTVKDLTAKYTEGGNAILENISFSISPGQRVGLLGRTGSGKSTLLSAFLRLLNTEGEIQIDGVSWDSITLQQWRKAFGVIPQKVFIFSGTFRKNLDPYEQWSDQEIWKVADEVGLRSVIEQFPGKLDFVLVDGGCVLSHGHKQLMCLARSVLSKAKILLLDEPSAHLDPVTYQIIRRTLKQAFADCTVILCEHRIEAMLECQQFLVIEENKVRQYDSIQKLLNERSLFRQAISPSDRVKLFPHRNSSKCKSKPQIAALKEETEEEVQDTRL
# From the text: 1. Membrane Potential Optical Methods for Assaying F508del Modulation Properties of Compounds
# The assay utilizes fluorescent voltage sensing dyes to measure changes in membrane potential using a fluorescent plate reader (e.g., FLIPR III, Molecular Devices, Inc.) as a readout for increase in functional F508del in NIH 3T3 cells. The driving force for the response is the creation of a chloride ion gradient in conjunction with channel activation by a single liquid addition step after the cells have previously been treated with compounds and subsequently loaded with a voltage sensing dye.
# 2. Identification of Corrector Compounds
# To identify correctors of F508del, a single-addition HTS assay format was developed. This HTS assay utilizes fluorescent voltage sensing dyes to measure changes in membrane potential on the FLIPR III as a measurement for increase in gating (conductance) of F508del in F508del NIH 3T3 cells. The F508del NIH 3T3 cell cultures were incubated with the corrector compounds at a range of concentrations for 18-24 hours at 37° C., and subsequently loaded with a redistribution dye. The driving force for the response is a Cl^− ion gradient in conjunction with channel activation with forskolin in a single liquid addition step using a fluorescent plate reader such as FLIPR III.
# Bath Solution #1: (in mM) NaCl 160, KCl 4.5, CaCl2) 2, MgCl2 1, HEPES 10, pH 7.4 with NaOH.
# Chloride-free bath solution: Chloride salts in Bath Solution #1 (above) are substituted with gluconate salts.
# NIH3T3 mouse fibroblasts stably expressing F508del are used for optical measurements of membrane potential. The cells are maintained at 37° C. in 5% CO2 and 90% humidity in Dulbecco's modified Eagle's medium supplemented with 2 mM glutamine, 10% fetal bovine serum, 1×NEAA, b-ME, 1×pen/strep, and 25 mM HEPES in 175 cm^2 culture flasks. For all optical assays, the cells were seeded at ˜20,000/well in 384-well matrigel-coated plates. For the correction assays, the cells are cultured at 37° C. with and without compounds for 16-24 hours.
# CFTR = CFTR (Homo sapiens, UniProt P13569); assay: Membrane Potential Dye, Enteroid Assay A; format: cell-based; details: for pEC50: read-out: Ent. A EC50
# Sequence of CFTR (P13569 with tags, fused parts or gaps DEL508-508): as above
# Procedure, shortened: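 Enteroid cells were loaded with methyl oxonol membrane potential dye (plus CaCCinh-A01 and Chicago Sky Blue) for 25 min at room temperature. Chloride transport was started by switching to chloride-free gluconate stimulation solution, with fluorescence read for 15 min. Activity was expressed as % of a triple-combination CFTR modulator control (3 μM, 3 μM, 300 nM acute).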
# [1] = Table 8, read-out: 3T3 Max Activity
# [2] = NIH 3T3 cells, F508del correction
SMILES,Emax (F508del; [1]) [%],pEC50 (F508del; Table 8),Ent. A Max Activity (CFTR; Table 8),pEC50 (CFTR; Table 8),pEC50 (F508del; [2]),Ent. A Max Activity (CFTR; Enteroid Assay A),pEC50 (CFTR; Enteroid Assay A),"Emax (F508del; heading: 3T3 Max Activity, NIH 3T3 cells, F508del correction) [%]",3T3 Max Activity (F508del; Table 8)
"Cc1cccc(C)c1-c1cc2nc(n1)NS(=O)(=O)c1cccc(c1)C(=O)NC[C@@H](c1ccc(C(C)(C)C)cn1)O2 (single isomer, unassigned) [Compound 7, 10-(5-tert-Butyl-2-pyridyl)-6-(2,6-dimethylphenyl)-2,2-dioxo-9-oxa-2λ^6-thia-3,5,12,19-tetrazatricyclo[12.3.1.14,8]nonadeca-1(18),4(19),5,7,14,16-hexaen-13-one]",> 60,> 6.00,+++ (+++ is >60%),> 6.00,,,,,
"Cc1cccc(C)c1-c1cc2nc(n1)NS(=O)(=O)c1cccc(c1)C(=O)N[C@H](CCC(C)(C)C)CO2 (single isomer, unassigned) [Compound 47]",> 60,> 6.00,+++ (+++ is >60%),> 6.00,,,,,
Cc1cccc(C)c1-c1cc2nc(n1)NS(=O)(=O)c1cccc(c1)C(=O)N[C@H](CC(C)C)C(C1CC1)O2 (stereo in doubt) [Compound 239],> 60,> 6.00,+++ (+++ is >60%),> 6.00,,,,,
Cc1cccc(C)c1-c1cc2nc(n1)NS(=O)(=O)c1cccc(c1)C(=O)NC[C@H](C1CCCCC1)O2 (stereo in doubt) [Compound 270],> 60,> 6.00,+ (+ is <30%),,,,,,
Cc1cccc(C)c1-c1cc2nc(n1)NS(=O)(=O)c1cccc(c1)C(=O)NC[C@H](c1cccc(C(C)(C)C)c1)O2 (stereo in doubt) [Compound 274],> 60,> 6.00,+ (+ is <30%),4.52 to 5.52,,,,,
CCCC[C@@H]1Oc2cc(-c3c(C)cccc3C)nc(n2)NS(=O)(=O)c2cccc(c2)C(=O)N[C@@H]1CC1CCCCC1 (stereo in doubt) [Compound 287],> 60,> 6.00,+++ (+++ is >60%),> 6.00,,,,,
Cc1cccc(C)c1-c1cc2nc(n1)NS(=O)(=O)c1cccc(c1)C(=O)NC[C@@H](c1ccc(C(F)(F)F)cc1)O2 (stereo in doubt) [Compound 401],> 60,> 6.00,+++ (+++ is >60%),> 6.00,,,,,
"Cc1cccc(F)c1-c1cc2nc(n1)NS(=O)(=O)c1cccc(c1)C(=O)N[C@H](CC(C)C)CO2 [Compound 98, (11R)-6-(2-Fluoro-6-methylphenyl)-11-(2-methylpropyl)-9-oxa-2λ^6-thia-3,5,12,19-tetraazatricyclo[12.3.1.14,8]nonadeca-1(17),4,6,8(19),14(18),15-hexaene-2,2,13-trione]",> 60,> 6.00,+++ (+++ is >60%),> 6.00,,,,,
"CC1=C(c2cc3nc(n2)NS(=O)(=O)c2cccc(c2)C(=O)N[C@H](CC(C)C)CO3)C(C)CCC1 (stereo partly drawn) [Compound 100, (11R)-6-(2,6-Dimethylcyclohex-1-en-1-yl)-11-(2-methylpropyl)-9-oxa-2λ^6-thia-3,5,12,19-tetraazatricyclo[12.3.1.14,8]nonadeca-1(17),4,6,8(19),14(18),15-hexaene-2,2,13-trione]",> 60,> 6.00,+++ (+++ is >60%),5.52 to 6.00,,,,,
Cc1cccc(C)c1-c1cc2nc(n1)NS(=O)(=O)c1cccc(c1)C(=O)NCC(c1ccc3c(c1)CC(C)(C)O3)O2 (centres unmarked) [Compound 115],> 60,> 6.00,,5.52 to 6.00,,,,,
Cc1cccc(C)c1-c1cc2nc(n1)NS(=O)(=O)c1cccc(c1)C(=O)NCC(c1ccc3c(c1)OCO3)O2 (centres unmarked) [Compound 118],> 60,> 6.00,,> 6.00,,,,,
Cc1cccc(C)c1-c1cc2nc(n1)NS(=O)(=O)c1cccc(c1)C(=O)N[C@H](CC(C)C)[C@@H](C1CCCCC1)O2 [Compound 140],> 60,> 6.00,+++ (+++ is >60%),> 6.00,,,,,
Cc1cccc(C)c1-c1cc2nc(n1)NS(=O)(=O)c1cccc(c1)C(=O)N[C@H](CC1CCCCC1)[C@H](C)O2 [Compound 143],> 60,> 6.00,+++ (+++ is >60%),> 6.00,,,,,
Cc1cc(C(C)(C)C)ccc1[C@@H]1CNC(=O)c2cccc(c2)S(=O)(=O)Nc2nc(cc(-c3c(C)cccc3C)n2)O1 [Compound 155],> 60,> 6.00,,> 6.00,,,,,
Cc1ccc2cc1S(=O)(=O)Nc1nc(cc(-c3c(C)cccc3C)n1)OC[C@@H](CC1CCCCC1)NC2=O [Compound 160],,,,,> 6.00,++ (++ is 30-60%),5.52 to 6.00,,
Cc1cccc(C)c1-c1cc2nc(n1)NS(=O)(=O)c1cccc(c1)C(=O)N[C@H]1CC[C@H](CC1)O2 [Compound 198],,,,,> 6.00,+++ (+++ is >600%),5.52 to 6.00,> 60,
Cc1cccc(C)c1-c1cc2nc(n1)NS(=O)(=O)c1cccc(c1)C(=O)NCC(C)(C)CO2 [Compound 202],,,,,> 6.00,++ (++ is 30-60%),4.52 to 5.52,,
Cc1cccc(C)c1-c1cc2nc(n1)NS(=O)(=O)c1cccc(c1)C(=O)NC1CCCC(C1)O2 (centres unmarked) [Compound 203],,,,,> 6.00,++ (++ is 30-60%),,,
Cc1cccc(C)c1-c1cc2nc(n1)NS(=O)(=O)c1cccc(c1)C(=O)NCCCO2 [Compound 204],,,,,5.52 to 6.00,++ (++ is 30-60%),,,
Cc1cccc(C)c1-c1cc2nc(n1)NS(=O)(=O)c1cccc(c1)C(=O)NC(Cc1ccccc1)CO2 (centres unmarked) [Compound 206],,,,,> 6.00,+++ (+++ is >600%),> 6.00,,
Cc1cccc(C)c1-c1cc2nc(n1)NS(=O)(=O)c1cccc(c1)C(=O)NCC(c1ccc(C(C)C)cc1)O2 (centres unmarked) [Compound 271],,> 6.00,+++ (+++ is >60%),> 6.00,,,,,+++ (+++ is >60%)
Cc1cccc(C)c1-c1cc2nc(n1)NS(=O)(=O)c1cccc(c1)C(=O)NCC(c1ccc(C(C)C)cc1)O2 (centres unmarked) [Compound 272],> 60,> 6.00,+ (+ is <30%),5.52 to 6.00,,,,,
Cc1cccc(C)c1-c1cc2nc(n1)NS(=O)(=O)c1ccccc1C(=O)NCC(C1CCC(C)(C)CC1)O2 (centres unmarked) [Compound 284],> 60,> 6.00,+++ (+++ is >60%),> 6.00,,,,,
Cc1ccccc1-c1cc2nc(n1)NS(=O)(=O)c1cccc(c1)C(=O)N[C@H](CC(C)(C)C)CO2 [Compound 305],> 60,> 6.00,+++ (+++ is >60%),> 6.00,,,,,
CC(C)C[C@@H]1COc2cc(-c3ccccc3F)nc(n2)NS(=O)(=O)c2cccc(c2)C(=O)N1 [Compound 315],> 60,> 6.00,+++ (+++ is >60%),5.52 to 6.00,,,,,
Cc1ccccc1-c1cc2nc(n1)NS(=O)(=O)c1cccc(c1)C(=O)N[C@H](CC1CCCCC1)CO2 [Compound 316],,,,,> 6.00,+++ (+++ is >600%),> 6.00,,
